EC50 data for eleven compounds are collected here from patent US9090618B2, “Substituted benzimidazole-type piperidine compounds and uses thereof” (priority 2012, dated 2015).

The experiment has as its target human opioid receptor-like (ORL-1) (Homo sapiens (Human), UniProt P41146). Put plainly: In vitro ORL-1 receptor [35S]GTPγS functional assay. Type of experiment: biochemical. On the technique in general: GTPγS resists hydrolysis and so accumulates on activated G proteins.

human opioid receptor-like (ORL-1), sequence (P41146 whole entry): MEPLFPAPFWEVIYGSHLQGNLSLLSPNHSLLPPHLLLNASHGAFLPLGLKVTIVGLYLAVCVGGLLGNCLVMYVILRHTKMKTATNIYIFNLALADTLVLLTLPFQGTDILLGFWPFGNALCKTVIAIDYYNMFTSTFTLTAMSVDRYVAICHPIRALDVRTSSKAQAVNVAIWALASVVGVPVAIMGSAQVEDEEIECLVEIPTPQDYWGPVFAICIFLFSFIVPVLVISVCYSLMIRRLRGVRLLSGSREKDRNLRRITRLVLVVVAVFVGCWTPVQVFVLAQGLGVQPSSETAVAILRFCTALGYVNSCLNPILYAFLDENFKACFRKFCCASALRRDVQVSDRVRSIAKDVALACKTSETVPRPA

Consider `c1ccc2c(c1)nc(-c1nnn[nH]1)n2[C@H]1C[C@H]2CCC[C@@H](C1)N2[C@@H]1C[C@@H]2CCCC[C@@H](C2)C1` [ZA39, 1-((1R,3R,5S)-9-((1R,6S,8r)-bicyclo[4.3.1]decan-8-yl)-9-azabicyclo[3.3.1]nonan-3-yl)-2-(1H-tetrazol-5-yl)-1H-benzo[d]imidazole], for which the EC50 was over 20000 nM.
Turning to `COc1cnc(-c2nc3ccccc3n2[C@H]2C[C@H]3CCC[C@@H](C2)N3[C@@H]2C[C@@H]3CCCC[C@@H](C3)C2)cn1` [ZA42, 1-((1R,3R,5S)-9-((1R,6S,8r)-bicyclo[4.3.1]decan-8-yl)-9-azabicyclo[3.3.1]nonan-3-yl)-2-(5-methoxypyrazin-2-yl)-1H-benzo[d]imidazole], the EC50 is over 20000 nM.
Then `O=C(O)C1CCN(Cc2nc3ccccc3n2[C@H]2C[C@H]3CCC[C@@H](C2)N3[C@H]2C[C@@H]3CCC[C@@H](C3)C2)CC1` [ZA23, 1-((1-((1R,1′R,3r,3′R,5S,5′S)-[3,9′-bi(9′-azabicyclo[3.3.1]nonan)]-3′-yl)-1H-benzo[d]imidazol-2-yl)methyl)piperidine-4-carboxylic acid], with over 20000 nM.
The compound `O=c1cc(-c2nc3ccccc3n2[C@H]2C[C@H]3CCC[C@@H](C2)N3[C@@H]2C[C@@H]3CCCC[C@@H](C3)C2)[nH]c(=O)[nH]1` [ZA71, 6-(1-((1R,3R,5S)-9-((1R,6S,8r)-bicyclo[4.3.1]decan-8-yl)-9-azabicyclo[3.3.1]nonan-3-yl)-1H-benzo[d]imidazol-2-yl)pyrimidine-2,4(1H,3H)-dione] registered an EC50 of over 20000 nM.
Take `COc1cnc(-c2nc3ccccc3n2[C@H]2C[C@H]3CCC[C@@H](C2)N3[C@H]2C[C@@H]3CCC[C@@H](C3)C2)cn1` [ZA63, (1R,1′R,3r,3′R,5S,5′S)-3′-(2-(5-methoxypyrazin-2-yl)-1H-benzo[d]imidazol-1-yl)-9′-aza-3,9′-bi(bicyclo[3.3.1]nonane)]: the EC50 is over 20000 nM.
For `O=C(O)CN1CCC[C@@H]1c1nc2ccccc2n1[C@H]1C[C@H]2CCC[C@@H](C1)N2C1CCCCCCCCC1` [E30c(ii), 2-((R)-2-(1-((1R,3r,5S)-9-cyclodecyl-9-azabicyclo[3.3.1]nonan-3-yl)-1H-benzo[d]imidazol-2-yl)pyrrolidin-1-yl)acetic acid] the value was 336 ± 27 nM.
Turning to `O=C(O)CCN1CCC(c2nc3ccccc3n2[C@H]2C[C@H]3CCC[C@@H](C2)N3[C@@H]2C[C@@H]3CCCC[C@@H](C3)C2)CC1` [ZA08, 3-(4-(1-((1R,3R,5S)-9-((1R,6S,8s)-bicyclo[4.3.1]decan-8-yl)-9-azabicyclo[3.3.1]nonan-3-yl)-1H-benzo[d]imidazol-2-yl)piperidin-1-yl)propanoic acid], the EC50 amounted to 253 ± 20 nM.
`COCCOCCOCCN1CCC[C@@H](c2nc3ccccc3n2[C@H]2C[C@H]3CCC[C@@H](C2)N3[C@H]2C[C@@H]3CCC[C@@H](C3)C2)C1` [ZA11, (1R,1′R,3r,3′R,5S,5′S)-3′-(2-((R)-1-(2-(2-(2-methoxyethoxy)ethoxy)ethyl)piperidin-3-yl)-1H-benzo[d]imidazol-1-yl)-9′-aza-3,9′-bi(bicyclo[3.3.1]nonane)] showed an EC50 of 502 ± 99 nM.
For `O=C(O)CCN1CC[C@H](c2nc3ccccc3n2[C@H]2C[C@H]3CCC[C@@H](C2)N3[C@@H]2C[C@@H]3CCCC[C@@H](C3)C2)C1` [H32d(ii), 3-((S)-3-(1-((1R,3R,5S)-9-((1R,6S,8s)-bicyclo[4.3.1]decan-8-yl)-9-azabicyclo[3.3.1]nonan-3-yl)-1H-benzo[d]imidazol-2-yl)pyrrolidin-1-yl)propanoic acid], the EC50 is 160 ± 35 nM.
Turning to `O=C(O)CN1CCC(c2nc3ccccc3n2[C@H]2C[C@H]3CCC[C@@H](C2)N3[C@@H]2C[C@@H]3CCCC[C@@H](C3)C2)CC1` [ZA07, 2-(4-(1-((1R,3R,5S)-9-((1R,6S,8s)-bicyclo[4.3.1]decan-8-yl)-9-azabicyclo[3.3.1]nonan-3-yl)-1H-benzo[d]imidazol-2-yl)piperidin-1-yl)acetic acid], a half-maximal response (EC50) required 140 ± 17 nM.
In turn, `COCCOCCOCCN1CCC[C@H](c2nc3ccccc3n2[C@H]2C[C@H]3CCC[C@@H](C2)N3[C@H]2C[C@@H]3CCC[C@@H](C3)C2)C1` [ZA12, (1R,1′R,3r,3′R,5S,5′S)-3′-(2-((S)-1-(2-(2-(2-methoxyethoxy)ethoxy)ethyl)piperidin-3-yl)-1H-benzo[d]imidazol-1-yl)-9′-aza-3,9′-bi(bicyclo[3.3.1]nonane)] displayed an EC50 of 390 ± 34 nM.

Usually EC50 stands for the concentration needed to bring the measured effect to its halfway point. Low values mean an effect from little substance, high ones a need for much substance.
